Assay results: PubChem BioAssay (NCI)
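GI50 = concentration required for 50% inhibition of growth. TGI denotes the concentration required for complete inhibition of growth.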

Tests used:
Assay in all cases: NCI anticancer screen, dose series, 384-well format
HCT-116 colon = tested on: HCT-116 colon
EKVX NSCLC = tested on: EKVX NSCLC
LOX IMVI melanoma = tested on: LOX IMVI melanoma
RPMI-8226 leukemia = tested on: RPMI-8226 leukemia
OVCAR-3 ovarian = tested on: OVCAR-3 ovarian
NCI/ADR-RES ovarian = tested on: NCI/ADR-RES ovarian
HCT-15 colon = tested on: HCT-15 colon
RXF 393 renal = tested on: RXF 393 renal
UACC-257 melanoma = tested on: UACC-257 melanoma
HOP-62 NSCLC = tested on: HOP-62 NSCLC
UACC-62 melanoma = tested on: UACC-62 melanoma
SF-539 CNS = tested on: SF-539 CNS
SN12C renal = tested on: SN12C renal
M14 melanoma = tested on: M14 melanoma
NCI-H23 lung = tested on: NCI-H23 lung
SK-MEL-5 melanoma = tested on: SK-MEL-5 melanoma
COLO 205 colon = tested on: COLO 205 colon
OVCAR-5 ovarian = tested on: OVCAR-5 ovarian
MDA-MB-468 breast = tested on: MDA-MB-468 breast
NCI-H322M lung = tested on: NCI-H322M lung
SF-295 CNS = tested on: SF-295 CNS
MOLT-4 leukemia = tested on: MOLT-4 leukemia
SNB-19 CNS = tested on: SNB-19 CNS
NCI-H226 lung = tested on: NCI-H226 lung
SK-OV-3 ovarian = tested on: SK-OV-3 ovarian
NCI-H460 NSCLC = tested on: NCI-H460 NSCLC
NCI-H522 lung = tested on: NCI-H522 lung
DU-145 prostate = tested on: DU-145 prostate
MALME-3M melanoma = tested on: MALME-3M melanoma
ACHN renal = tested on: ACHN renal
OVCAR-4 ovarian = tested on: OVCAR-4 ovarian
U251 glioblastoma = tested on: U251 glioblastoma
A549 NSCLC = tested on: A549 NSCLC
SR leukemia = tested on: SR leukemia
HCC-2998 colon = tested on: HCC-2998 colon
TK-10 renal = tested on: TK-10 renal
MCF7 breast = tested on: MCF7 breast
PC-3 prostate = tested on: PC-3 prostate
OVCAR-8 ovarian = tested on: OVCAR-8 ovarian
MDA-MB-435 melanoma = tested on: MDA-MB-435 melanoma
HS 578T breast = tested on: HS 578T breast
HT29 colon = tested on: HT29 colon
IGROV1 ovarian = tested on: IGROV1 ovarian
HL-60(TB) leukemia = tested on: HL-60(TB) leukemia
CAKI-1 renal = tested on: CAKI-1 renal
SF-268 CNS = tested on: SF-268 CNS
SK-MEL-28 melanoma = tested on: SK-MEL-28 melanoma
MDA-MB-231 breast = tested on: MDA-MB-231 breast
SNB-75 CNS = tested on: SNB-75 CNS
HOP-92 NSCLC = tested on: HOP-92 NSCLC
KM12 colon = tested on: KM12 colon
A498 renal = tested on: A498 renal
T-47D breast = tested on: T-47D breast
BT-549 breast = tested on: BT-549 breast

CC(C)c1cc(C(=O)N2Cc3ccc(CN4CCN(C)CC4)cc3C2)c(O)cc1O
GI50 (HCT-116 colon): 0.0576 µM | TGI (HCT-116 colon): 11.7 µM | GI50 (EKVX NSCLC): 0.0461 µM | TGI (EKVX NSCLC): 8.59 µM | GI50 (LOX IMVI melanoma): 0.0392 µM | TGI (LOX IMVI melanoma): 0.146 µM | GI50 (RPMI-8226 leukemia): 0.0403 µM | TGI (RPMI-8226 leukemia): 0.156 µM | GI50 (OVCAR-3 ovarian): 0.0343 µM | TGI (OVCAR-3 ovarian): 0.0935 µM | GI50 (NCI/ADR-RES ovarian): 0.166 µM | TGI (NCI/ADR-RES ovarian): 0.515 µM | GI50 (HCT-15 colon): 0.0322 µM | TGI (HCT-15 colon): 10.2 µM | GI50 (RXF 393 renal): 0.0338 µM | TGI (RXF 393 renal): 11.3 µM | GI50 (UACC-257 melanoma): 0.186 µM | TGI (UACC-257 melanoma): 5.19 µM | GI50 (HOP-62 NSCLC): 0.0474 µM | TGI (HOP-62 NSCLC): 0.357 µM | GI50 (UACC-62 melanoma): 0.113 µM | TGI (UACC-62 melanoma): 1.68 µM | GI50 (SF-539 CNS): 0.0404 µM | TGI (SF-539 CNS): 10.4 µM | GI50 (SN12C renal): 0.0244 µM | TGI (SN12C renal): 0.125 µM | GI50 (M14 melanoma): 0.0479 µM | TGI (M14 melanoma): 2.69 µM | GI50 (NCI-H23 lung): 0.0382 µM | TGI (NCI-H23 lung): 13.3 µM | GI50 (SK-MEL-5 melanoma): 0.0237 µM | TGI (SK-MEL-5 melanoma): 1.33 µM | GI50 (COLO 205 colon): 0.0237 µM | TGI (COLO 205 colon): 0.0629 µM | GI50 (OVCAR-5 ovarian): 0.0387 µM | TGI (OVCAR-5 ovarian): 0.186 µM | GI50 (MDA-MB-468 breast): 0.0371 µM | TGI (MDA-MB-468 breast): 0.158 µM | GI50 (NCI-H322M lung): 0.0847 µM | TGI (NCI-H322M lung): 4.76 µM | GI50 (SF-295 CNS): 0.0407 µM | TGI (SF-295 CNS): 0.256 µM | GI50 (MOLT-4 leukemia): 0.0194 µM | TGI (MOLT-4 leukemia): 0.0357 µM | GI50 (SNB-19 CNS): 0.0764 µM | TGI (SNB-19 CNS): 0.71 µM | GI50 (NCI-H226 lung): 0.0758 µM | TGI (NCI-H226 lung): 0.838 µM | GI50 (SK-OV-3 ovarian): 0.0843 µM | TGI (SK-OV-3 ovarian): 12.1 µM | GI50 (NCI-H460 NSCLC): 0.0179 µM | TGI (NCI-H460 NSCLC): 0.0436 µM | GI50 (NCI-H522 lung): 0.0206 µM | TGI (NCI-H522 lung): 0.0423 µM | GI50 (DU-145 prostate): 0.0303 µM | TGI (DU-145 prostate): 0.0887 µM | GI50 (MALME-3M melanoma): 0.0615 µM | TGI (MALME-3M melanoma): 0.694 µM | GI50 (ACHN renal): 0.0594 µM | TGI (ACHN renal): 2.84 µM | GI50 (OVCAR-4 ovarian): 0.0332 µM | TGI (OVCAR-4 ovarian): 1.7 µM | GI50 (U251 glioblastoma): 0.0343 µM | TGI (U251 glioblastoma): 0.0973 µM | GI50 (A549 NSCLC): 0.0641 µM | TGI (A549 NSCLC): 16.8 µM | GI50 (SR leukemia): 0.0138 µM | TGI (SR leukemia): 0.0368 µM | GI50 (HCC-2998 colon): 0.0124 µM | TGI (HCC-2998 colon): 0.0317 µM | GI50 (TK-10 renal): 0.045 µM | TGI (TK-10 renal): 0.856 µM | GI50 (MCF7 breast): 0.0379 µM | TGI (MCF7 breast): 11.1 µM | GI50 (PC-3 prostate): 0.0465 µM | TGI (PC-3 prostate): 0.319 µM | GI50 (OVCAR-8 ovarian): 0.0379 µM | TGI (OVCAR-8 ovarian): 0.175 µM | GI50 (MDA-MB-435 melanoma): 0.0353 µM | TGI (MDA-MB-435 melanoma): 10.5 µM | GI50 (HS 578T breast): 0.131 µM | TGI (HS 578T breast): 2.33 µM | GI50 (HT29 colon): 0.0405 µM | TGI (HT29 colon): 11.3 µM | GI50 (IGROV1 ovarian): 0.0377 µM | TGI (IGROV1 ovarian): 0.216 µM | GI50 (HL-60(TB) leukemia): 0.0218 µM | TGI (HL-60(TB) leukemia): 0.0417 µM | GI50 (CAKI-1 renal): 0.342 µM | TGI (CAKI-1 renal): 17.3 µM | GI50 (SF-268 CNS): 0.0711 µM | TGI (SF-268 CNS): 16.2 µM | GI50 (SK-MEL-28 melanoma): 0.4 µM | TGI (SK-MEL-28 melanoma): 17.1 µM | GI50 (MDA-MB-231 breast): 0.142 µM | TGI (MDA-MB-231 breast): 0.775 µM | GI50 (SNB-75 CNS): 0.0525 µM | TGI (SNB-75 CNS): 11.6 µM | GI50 (HOP-92 NSCLC): 0.217 µM | TGI (HOP-92 NSCLC): 1.6 µM | GI50 (KM12 colon): 0.0371 µM | TGI (KM12 colon): 12.5 µM | GI50 (A498 renal): 0.0822 µM | TGI (A498 renal): 11.3 µM | GI50 (T-47D breast): 0.172 µM | TGI (T-47D breast): 11.6 µM | GI50 (BT-549 breast): 0.0321 µM | TGI (BT-549 breast): 0.528 µM
